Assay results published in patent US10711040B2, “Low substituted polymyxins and compositions thereof” (priority 2014, dated 2020).
Values joined by “and” are separate entries in the source; they are usually repeats but may differ in a detail not shown here. Equal values may be shown once.

Key:
[1] = test system: KIM-1 (kidney injury molecule-1); assay: Nephrotoxicity in mice, urinary KIM-1 by ELISA; type: in vivo; settings: 80 mg/kg subcutaneously once a day for 5 days; individual mice
Protocol: Nephrotoxicity was measured using KIM-1 (kidney injury molecule-1) as a biomarker of acute tubular necrosis.
(§1) Mice were treated with a mixture comprising 93% mono(N^γ-bis-sulfomethyl) Polymyxin E1 or CMS for 5 days and were monitored for clinical signs of toxicity and urine concentrations of KIM-1. […] The normal range of KIM-1 in mouse urine, as stated in the ELISA kit instruction, is 456-8048 pg/ml.
(§2) The mixtures were received as dry powder and were dissolved in the vials in sterile saline to the concentration stated in table 1, immediately prior to injection.
(§3) Once a day for 5 days, mice were treated subcutaneously in the neck region with 0.2 ml corresponding to the doses stated in Table 1. The dosing was based on a mean weight of 28 g.
Urine samples were collected at 24 hrs after the 2nd dosing and 4 hrs after the 5th dosing. Samples were stored at −80° C. until analysed for KIM-1 concentrations
Urine samples were thawed, centrifuged for 5 min at 2000 g and diluted ×50 prior to performing the ELISA according the instruction in the Quantikine ELISA mouse TIM-1/KIM-1/HAVCR Immunoassay kit.

[2] = Tolerability in mice: clinical signs of toxicity, body weight, clinical scoring; settings: mouse, in vivo
Protocol: as §1, §2, §3
All the tested mixtures were well tolerated by mice as determined by body weight and clinical scoring.

[3] = test system: Pseudomonas aeruginosa (strain PAX11045); assay: Mouse model with pulmonary infection of Pseudomonas aeruginosa; type: in vivo; design: key to Clinical score at T = 19 / Clinical score at T = 22: 0: healthy; 1: minor clinical signs of infection and inflammation like piloerection in the skin, distress and social withdrawal; 2: moderate signs of infection like changed body position, changes in pattern of movement, lack of curiosity or changed activity.; 3: severe signs of infection like stiff movements, forced ventilation,; 4: severe pain, mouse was sacrificed immediately to minimize suffering; 5: The mouse was dead; settings: dose 10 mg/kg, peritoneal
Protocol: A mouse model with pulmonary infections of Pseudomonas aeruginosa (strain PAX11045) were treated with peritoneal administration of Polymyxin E1, CMS E1 and mono bis-sulfomethylated Polymyxin E1. CFU is the calculated number of colony forming units in the lung tissue after 22 hours except for the non-treatment group of mice.

For Gentamicin, the “Urinary KIM-1 concentrations after 5 doses” value [1] was 12850 pg/mL and 5900 pg/mL and 5750 pg/mL.

For Colistimethate sodium [CMS], the “clinical signs of toxicity” value [2] was “no clinical signs of toxicity”.

In the case of Polymyxin E1 [Polymyxin-E1], the “Clinical score at T = 19” value ([3]; individual mice) was 3 (6×) and 2, the “Clinical score at T = 22” value ([3]; individual mice) was 4 (2×) and 2 and 3 (4×) and the “mean log10 CFU” value ([3]; lung tissue after 22 hours) was 4.43 log10 CFU. The “log10 CFU lung” value ([3]; lung tissue after 22 hours, individual mice, 10 mg/kg) was 5.65 log10 CFU and 4.08 log10 CFU and 6.06 log10 CFU and 4.05 log10 CFU and 3.78 log10 CFU and 3.70 log10 CFU and 3.72 log10 CFU.
